Assay results from patent publication US5489576A, “Therapeutic agent for hemorrhoidal diseases” (Senju Pharmaceutical Co., Ltd., priority 1993, dated 1996).
Counter-ions that a name gives are not always drawn.

How the values were obtained:
rectal mucosa = assay: Rectal mucosa irritating action; format: in vivo, Male Wistar rats; conditions: intrarectal, 5 h; for Irritation potency, Index value: mean ± standard error (n = 6); for Irritation potency, Central value: score 0-4 of Table 1
Method: Rectal Mucosa Irritating Action of Compound (I)
The rectal mucosa irritating action of Compound (I) was examined as in the following.
1. Animals used: Male Wistar rats weighing 135-200 g
2. Test substance: EPC-K added to an oil-in-water type cream
The rats were fasted for 48 hours and the test substance was intrarectally administered. Five hours later, the rats were exsanguinated to death. The rectum was removed and the mucosa was visually observed. The condition of the mucosa was expressed in numerical units according to the evaluation standard shown in Table 1, and a central value and an average value were calculated, based on which the irritation by the test substance was classified according to the evaluation standard for irritation shown in Table 2.

[1] = system: recto-anal edema induced by a croton oil mixture; assay: Suppressive effect on recto-anal edema induced by croton oil mixture; format: in vivo, Male Wistar rats; conditions: 4% EPC-K in petrolatum, 24 h, * p < 0.05 vs control
Method: Effects of Compound (I) on Models with Hemorrhoidal Disease Induced by Croton Oil Mixture
The suppressive effect of Compound (I) on recto-anal edema induced by a croton oil mixture was examined.
1. Animals used: Male Wistar rats weighing 140-250 g
2. Test substance: EPC-K added to petrolatum base material to 4 w/w %
Composition: distilled water:pyridine:diethyl ether:6% croton oil in diethyl ether solution=1:4:5:10
Preparation: Water and a small amount of diethyl ether were added to pyridine and mixed. Then, a 6% croton oil diethyl ether solution was added and the remaining diethyl ether was added thereto. The mixture was vigorously shaken.
A stype of a swab was impregnated with the croton oil mixture (160 μl) and the entire stype was inserted into the rectum for 10 seconds.
5. Determination of edema
The test substance was administered intrarectally immediately after the induction of inflammation, and the anus was sealed for 4 hours with a clip so as to prevent leaking out of the substance.
At 24 hours after the induction of inflammation, the rats were exsanguinated to death and the weight of the recto-anal part, cut out in 15 mm length from 5 mm from the circular hairline on annal epithelium, was measured. The recto-anal coefficient (RAC=Wra·Wb^-1 ·10^3) was calculated on the basis of the weight of the recto-anal part (Wra) and body weight (Wb) and used as an index of inflammation.

[2] = LD50 in rats (acute toxicity); conditions: rat, in vivo
Description: Accordingly, it can be advantageously used for the treatment of hemorrhoidal diseases.

rectal tissues = assay: Wound healing accelerating effect on rectal tissues (hydroxyproline content); format: in vivo, Male Wistar rats; conditions: 1% EPC-K, average (n=5)
Method: Wound Healing Accelerating Effect of Compound (I) on Rectal Tissues
The wound healing accelerating effect of Compound (I) on rectal tissues was examined using the amount of hydroxyproline (Hyp) in tissue as an index.
1. Animals used: Male Wistar rats weighing 150-250 g
2. Test substance: EPC-K added to an oil-in-water cream to 1 w/w %
The rats were fasted for 24 hours and a narrow saw was inserted in the rectum. A wound was made by two reciprocations of the saw in the rectum. The test substance was injected in the rectum once a day by 100 μl beginning immediately after forming of the wound. The rats were exsanguinated to death at 4 hours, 1, 3, 6 or 9 days thereafter and the rectum was removed. The removed rectum was delipidized, shredded and dried. After acid hydrolysis, pH was adjusted and hydroxyproline content was measured by the chloramine T oxidation method.

[3] = 0.2% EPC-K in oil-in-water cream

SMILES: Cc1c(C)c2c(c(C)c1OP(=O)(O)OC1=C(O)[C@@H]([C@@H](O)CO)OC1=O)CCC(C)(CCCC(C)CCCC(C)CCCC(C)C)O2 (mixture of isomers) [EPC-K, L-ascorbic acid DL-α-tocopheryl phosphate diester potassium salt]
- Irritation potency, Index value (rectal mucosa; [3]): 0.67 ± 0.42
- Irritation potency, Central value (rectal mucosa; [3]): 0
- Irritation potency, Index value (rectal mucosa; 1% EPC-K in oil-in-water cream): 0.50 ± 0.34
- Irritation potency, Central value (rectal mucosa; 1% EPC-K in oil-in-water cream): 0
- Irritation potency, Index value (rectal mucosa; 5% EPC-K in oil-in-water cream): 0.83 ± 0.54
- Irritation potency, Central value (rectal mucosa; 5% EPC-K in oil-in-water cream): 0
- Edema suppression [1]: 19.5%
- Recto-anal coefficient (RAC) ([1]; mean ± standard error (n = 10), control 2.36, untreated 0.67): 2.03 ± 0.07
- LD50 ([2]; intravenous injection to rats): ≥ 100 mg/kg
- LD50 ([2]; oral administration to rats): ≥ 5000 mg/kg
- Hydroxyproline content in rectal tissues (rectal tissues; 4 hr later, control 19.67, normal rectum 22.26): 19.38 µg/mg
- Hydroxyproline content in rectal tissues (rectal tissues; 1 day later, control 19.69, normal rectum 22.26): 21.70 µg/mg
- Hydroxyproline content in rectal tissues (rectal tissues; 3 days later, control 23.46, normal rectum 22.26): 24.75 µg/mg
- Hydroxyproline content in rectal tissues (rectal tissues; 6 days later, control 25.63, normal rectum 22.26): 25.22 µg/mg
- Hydroxyproline content in rectal tissues (rectal tissues; 9 days later, control 27.38, normal rectum 22.26): 26.53 µg/mg
